Values after ≈ are worked out from the molar mass of the structure shown.
Experiments:
αvβ3 = target: T1, αvβ3 (Homo sapiens, UniProt P05106+P06756); assay: Cell Adhesion Assay K562-αvβ3 (LAP-b1); assay type: cell-based; settings: K562-αvβ3 cells, ligand LAP-b1, 2 mM MgCl2; read-out: affinity in the cell Adhesion Assays αvβ3 pIC50 (converted)
T1 construct: expressed in transfected cells; host or cells: K562-αvβ3
Description: (§1) The following cell lines were used, with ligands in brackets: K562-α5β1 (Fibronectin), K562-αvβ3 (LAP-b1), K562-αvβ5 (Vitronectin), K562-αvβ6 (LAP-b1), K562-αvβ8 (LAP-b1). The divalent cation used to facilitate adhesion was 2 mM MgCl2. Adhesion was quantified by cell labelling with the fluorescent dye BCECF-AM (Life Technologies), where cell suspensions at 6×10^6 cells/mL were incubated with […] of 30 mM BCECF-AM at 37° C. for 10 minutes, before dispensing into the assay plate. At the assay conclusion cells that adhered were lysed using 50 μL/well of 0.5% Triton X-100 in H2O to release fluorescence. Fluorescence intensity was detected using an Envision® plate reader (Perkin Elmer). For active antagonists in the assay, data were fitted to a 4 parameter logistic equation for IC50 determinations.

αvβ5 = target: T2, αvβ5 (Homo sapiens, UniProt P06756+P18084); assay: Cell Adhesion Assay K562-αvβ5 (Vitronectin); assay type: cell-based; settings: K562-αvβ5 cells, ligand Vitronectin, 2 mM MgCl2; read-out: affinity in the cell Adhesion Assays αvβ5 pIC50 (converted)
T2 construct: expressed in transfected cells; host or cells: K562-αvβ5
Description: as §1

physchem = settings: kinetic from dmso stock
Description: The Chemiluminescent nitrogen detection (CLND) kinetic solubility was measured according to N. Bhattachar et. al. J. Pharm. Biomed.

αvβ8 = target: T3, αvβ8 (Homo sapiens, UniProt P06756+P26012); assay: Cell Adhesion Assay K562-αvβ8 (LAP-b1); assay type: cell-based; settings: K562-αvβ8 cells, ligand LAP-b1, 2 mM MgCl2; read-out: affinity in the cell Adhesion Assays αvβ8 pIC50 (converted)
T3 construct: expressed in transfected cells; host or cells: K562-αvβ8
Description: as §1

[1] = target: T4, human soluble αvβ6 protein (Homo sapiens, UniProt P06756+P18564); assay: Fluorescence Polarisation Assay, binding of human soluble αvβ6 protein to an RGD-containing peptide; settings: read-out: affinity (pIC50) for the human αvβ6 protein in the Fluorescence Polarisation Assay (converted)
T4 construct: The expressed protein contained amino acid 31-987 of αv followed by a Tev cleavage site; Tev cleavage site (C); 6His tag (C); Prescission protease site (C); FLAG tag (C); made in house; host or cells: baculovirus expression system (pFastBac dual construct)
Text: Binding of human soluble αvβ6 protein to an RGD-containing Peptide by Fluorescence Polarisation Assay:
The extracellular domains of αv and β6 were co-expressed from a pFastBac dual construct using the baculovirus expression system. […] The protein was secreted into the media on expression; it was purified using diafiltration followed by purification using the His tag followed by the FLAG tag and then size exclusion chromatography. […] A fluorescent binding peptide based on LAPβ3 was synthesised chemically, having the sequence Ac-[…](Cy3B)-NH2. An assay buffer of 25 mM HEPES pH7.4, 150 mM NaCl, 1 mM CHAPS and […] was used. To black low volume 384 well plates were added […] of test compound in 100% DMSO, followed by […] αvβ6 protein. Plates were incubated at room temperature for 15 minutes before addition of […] fluorescent RGD-containing peptide. […] For active antagonists in the assay, data were fitted to a 4 parameter logistic equation for IC50 determinations.

αvβ6 = target: T5, αvβ6 (Homo sapiens, UniProt P06756+P18564); assay: Cell Adhesion Assay K562-αvβ6 (LAP-b1); assay type: cell-based; settings: K562-αvβ6 cells, ligand LAP-b1, 2 mM MgCl2; read-out: affinity in the cell Adhesion Assays αvβ6 pIC50 (converted)
T5 construct: expressed in transfected cells; host or cells: K562-αvβ6
Description: as §1

T3 sequence (P06756 31-1048): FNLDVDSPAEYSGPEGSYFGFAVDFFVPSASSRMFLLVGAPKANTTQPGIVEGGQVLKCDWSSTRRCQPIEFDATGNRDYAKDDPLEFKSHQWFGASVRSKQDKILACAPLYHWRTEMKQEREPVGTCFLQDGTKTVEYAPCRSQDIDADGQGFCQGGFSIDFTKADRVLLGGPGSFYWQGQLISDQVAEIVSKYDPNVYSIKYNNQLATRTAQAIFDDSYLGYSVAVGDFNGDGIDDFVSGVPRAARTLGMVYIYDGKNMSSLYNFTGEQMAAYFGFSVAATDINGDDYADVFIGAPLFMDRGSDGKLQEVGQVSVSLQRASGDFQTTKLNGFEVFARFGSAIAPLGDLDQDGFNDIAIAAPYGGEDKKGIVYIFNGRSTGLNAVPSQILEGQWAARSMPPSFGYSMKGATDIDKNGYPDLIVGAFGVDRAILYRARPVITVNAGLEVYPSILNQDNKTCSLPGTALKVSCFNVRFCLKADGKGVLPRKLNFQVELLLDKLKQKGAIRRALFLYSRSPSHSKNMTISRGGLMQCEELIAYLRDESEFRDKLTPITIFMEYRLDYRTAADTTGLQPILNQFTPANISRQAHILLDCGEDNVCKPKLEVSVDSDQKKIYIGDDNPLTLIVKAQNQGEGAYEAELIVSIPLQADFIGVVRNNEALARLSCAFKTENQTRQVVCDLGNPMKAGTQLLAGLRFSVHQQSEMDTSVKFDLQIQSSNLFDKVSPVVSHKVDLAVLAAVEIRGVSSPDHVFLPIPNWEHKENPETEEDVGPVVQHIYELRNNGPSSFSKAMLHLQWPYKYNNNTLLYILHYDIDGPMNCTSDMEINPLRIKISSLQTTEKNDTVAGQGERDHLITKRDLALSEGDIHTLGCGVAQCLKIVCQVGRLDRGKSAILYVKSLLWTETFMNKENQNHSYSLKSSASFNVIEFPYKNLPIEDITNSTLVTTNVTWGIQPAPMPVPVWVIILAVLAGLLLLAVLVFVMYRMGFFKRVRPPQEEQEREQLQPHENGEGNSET
T3 sequence (P26012 43-769): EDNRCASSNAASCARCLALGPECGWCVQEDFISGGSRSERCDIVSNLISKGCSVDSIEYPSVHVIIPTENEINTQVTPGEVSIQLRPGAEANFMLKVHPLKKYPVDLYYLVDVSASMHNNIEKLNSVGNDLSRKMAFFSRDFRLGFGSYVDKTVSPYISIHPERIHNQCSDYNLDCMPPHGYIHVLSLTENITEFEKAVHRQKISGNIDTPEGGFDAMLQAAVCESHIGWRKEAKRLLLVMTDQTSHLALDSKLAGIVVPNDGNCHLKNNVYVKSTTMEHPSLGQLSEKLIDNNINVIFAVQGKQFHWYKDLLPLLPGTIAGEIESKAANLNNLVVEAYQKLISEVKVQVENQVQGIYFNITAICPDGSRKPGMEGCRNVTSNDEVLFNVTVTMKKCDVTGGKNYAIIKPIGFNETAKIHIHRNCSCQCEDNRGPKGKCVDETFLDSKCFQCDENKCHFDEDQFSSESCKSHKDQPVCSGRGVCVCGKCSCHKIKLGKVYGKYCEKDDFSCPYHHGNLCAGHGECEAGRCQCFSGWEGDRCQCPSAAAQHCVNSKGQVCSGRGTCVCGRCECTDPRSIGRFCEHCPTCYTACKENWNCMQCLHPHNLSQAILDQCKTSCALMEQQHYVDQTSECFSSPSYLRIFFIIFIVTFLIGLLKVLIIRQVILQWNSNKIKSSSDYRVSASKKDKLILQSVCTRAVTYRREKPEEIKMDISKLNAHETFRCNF
T2 sequence (P06756 31-1048): as the sequence (P06756 31-1048) above
T2 sequence (P18084 24-799): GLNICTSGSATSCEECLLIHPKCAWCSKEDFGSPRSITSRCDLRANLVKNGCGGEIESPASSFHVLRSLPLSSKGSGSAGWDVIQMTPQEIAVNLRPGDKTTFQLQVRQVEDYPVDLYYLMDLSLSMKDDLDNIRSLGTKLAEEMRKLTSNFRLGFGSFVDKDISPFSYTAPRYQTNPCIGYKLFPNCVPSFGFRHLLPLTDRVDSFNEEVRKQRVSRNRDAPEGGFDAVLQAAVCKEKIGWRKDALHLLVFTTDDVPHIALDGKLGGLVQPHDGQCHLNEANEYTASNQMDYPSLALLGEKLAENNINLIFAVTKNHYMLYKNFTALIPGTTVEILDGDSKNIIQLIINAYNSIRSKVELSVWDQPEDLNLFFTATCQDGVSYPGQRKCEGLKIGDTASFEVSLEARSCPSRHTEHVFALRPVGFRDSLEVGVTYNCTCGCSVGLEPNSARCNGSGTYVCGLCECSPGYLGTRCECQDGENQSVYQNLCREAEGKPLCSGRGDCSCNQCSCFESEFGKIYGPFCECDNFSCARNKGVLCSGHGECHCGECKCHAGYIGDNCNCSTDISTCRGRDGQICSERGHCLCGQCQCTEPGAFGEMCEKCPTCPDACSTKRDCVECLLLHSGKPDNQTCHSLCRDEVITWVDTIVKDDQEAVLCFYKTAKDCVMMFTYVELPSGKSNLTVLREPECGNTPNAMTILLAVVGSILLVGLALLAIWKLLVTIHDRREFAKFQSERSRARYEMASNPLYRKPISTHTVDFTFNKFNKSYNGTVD
T5 sequence (P06756 31-1048): as the sequence (P06756 31-1048) above
T5 sequence (P18564 22-788): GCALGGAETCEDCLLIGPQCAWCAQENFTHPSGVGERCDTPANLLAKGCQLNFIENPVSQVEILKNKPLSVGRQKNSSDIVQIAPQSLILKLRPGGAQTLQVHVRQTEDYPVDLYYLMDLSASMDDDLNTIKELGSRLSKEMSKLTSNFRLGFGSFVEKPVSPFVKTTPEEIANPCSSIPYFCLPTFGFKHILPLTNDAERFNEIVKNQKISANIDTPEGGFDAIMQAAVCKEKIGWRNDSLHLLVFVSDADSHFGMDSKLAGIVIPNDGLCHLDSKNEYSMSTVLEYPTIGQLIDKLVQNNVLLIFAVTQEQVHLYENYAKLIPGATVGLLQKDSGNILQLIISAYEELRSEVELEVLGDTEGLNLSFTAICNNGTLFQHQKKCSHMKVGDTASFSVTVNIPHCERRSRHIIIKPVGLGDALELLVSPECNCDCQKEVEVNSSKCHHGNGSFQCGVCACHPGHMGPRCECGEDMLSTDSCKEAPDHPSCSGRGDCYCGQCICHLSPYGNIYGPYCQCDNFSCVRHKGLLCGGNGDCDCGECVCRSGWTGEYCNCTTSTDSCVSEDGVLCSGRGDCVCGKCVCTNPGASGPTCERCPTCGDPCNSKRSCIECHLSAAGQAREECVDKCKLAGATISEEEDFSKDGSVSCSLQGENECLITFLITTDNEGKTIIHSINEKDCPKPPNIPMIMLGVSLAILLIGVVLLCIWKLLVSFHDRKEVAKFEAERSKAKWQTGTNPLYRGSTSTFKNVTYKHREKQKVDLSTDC
T1 sequence (P06756 31-1048): as the sequence (P06756 31-1048) above
T1 sequence (P05106 27-788): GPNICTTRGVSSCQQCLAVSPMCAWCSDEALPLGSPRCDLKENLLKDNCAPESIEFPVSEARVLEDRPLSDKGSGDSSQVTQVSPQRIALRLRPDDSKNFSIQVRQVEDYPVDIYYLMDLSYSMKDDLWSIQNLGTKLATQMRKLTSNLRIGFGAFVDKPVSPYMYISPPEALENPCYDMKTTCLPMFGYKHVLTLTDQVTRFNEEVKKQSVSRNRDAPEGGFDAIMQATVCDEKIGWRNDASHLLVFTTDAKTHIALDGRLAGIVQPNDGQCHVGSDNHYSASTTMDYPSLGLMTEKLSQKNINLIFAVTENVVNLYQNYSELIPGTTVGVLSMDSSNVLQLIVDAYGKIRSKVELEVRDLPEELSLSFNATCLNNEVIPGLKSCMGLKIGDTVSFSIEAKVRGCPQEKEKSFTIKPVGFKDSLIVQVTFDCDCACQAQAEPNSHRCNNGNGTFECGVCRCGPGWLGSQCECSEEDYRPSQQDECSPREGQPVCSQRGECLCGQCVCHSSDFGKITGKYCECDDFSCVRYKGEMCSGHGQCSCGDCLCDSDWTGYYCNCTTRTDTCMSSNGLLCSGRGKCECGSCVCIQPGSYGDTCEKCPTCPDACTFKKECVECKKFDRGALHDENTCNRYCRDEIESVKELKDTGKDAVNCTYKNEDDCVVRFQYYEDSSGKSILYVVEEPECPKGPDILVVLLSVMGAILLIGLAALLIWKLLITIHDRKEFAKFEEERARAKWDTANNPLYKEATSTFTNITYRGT

| IC50 (αvβ3) | IC50 (αvβ5) | solubility kinetic (physchem) | IC50 (αvβ8) | IC50 [1] | IC50 (αvβ6) | SMILES |
| --- | --- | --- | --- | --- | --- | --- |
| 1580 nM | 251 nM | 437 µM (≈ 221 µg/mL) | 50.1 nM | 20 nM | 7.94 nM | Cc1nn(-c2cccc(C(CC(=O)O)CN3CC[C@@H](CCc4ccc5c(n4)NCCC5)C3)c2)c(C)c1F (stereo partly drawn) [Example 6, 3-(3-(4-Fluoro-3,5-dimethyl-1H-pyrazol-1-yl)phenyl)-4-((R)-3-(2-(5,6,7,8-tetrahydro-1,8-naphthyridin-2-yl)ethyl)pyrrolidin-1-yl)butanoic acid] |
| 1000 nM | 126 nM | 276 µM (≈ 138 µg/mL) | 20 nM | 6.31 nM | 7.94 nM | CCc1cc(C)nn1-c1cccc(C(CC(=O)O)CN2CC[C@@H](CCc3ccc4c(n3)NCCC4)C2)c1 (stereo partly drawn) [Example 3, 3-(3-(5-Ethyl-3-methyl-1H-pyrazol-1-yl)phenyl)-4-((R)-3-(2-(5,6,7,8-tetrahyrdro-1,8-naphthyridin-2-yl)ethyl)pyrrolidin-1-yl)butanoic acid] |
|  |  | 388 µM (≈ 178 µg/mL) |  |  |  | O=C(O)CC(CN1CC[C@@H](CCc2ccc3c(n2)NCCC3)C1)c1cccc(-n2cccn2)c1 (stereo partly drawn) [Example 4, 3-(3-(1H-Pyrazol-1-yl)phenyl)-4-((R)-3-(2-(5,6,7,8-tetrahydro-1,8-naphthyridin-2-yl)ethyl)pyrrolidin-1-yl)butanoic acid] |
| 794 nM | 251 nM | 470 µM (≈ 242 µg/mL) | 39.8 nM | 15.8 nM | 7.94 nM | CCc1cc(CC)n(-c2cccc(C(CC(=O)O)CN3CC[C@@H](CCc4ccc5c(n4)NCCC5)C3)c2)n1 (stereo partly drawn) [Example 5, 3-(3-(3,5-Diethyl-1H-pyrazol-1-yl)phenyl)-4-((R)-3-(2-(5,6,7,8-tetrahydro-1,8-naphthyridin-2-yl)ethyl)pyrrolidin-1-yl)butanoic acid] |

From patent US10023568B2, “Naphthyridine derivatives useful as αvβ6 integrin antagonists” (GlaxoSmithKline Intellectual Property Development Limited, priority 2013, dated 2018)
